Patent US20260062422A1 (Halda Therapeutics OpCo, Inc., priority 2022, published 2026)

What was measured:
VCaP cells = experiment: Cellular growth inhibition assay for VCaP cells, CellTiter-Glo; assay type: cell-based, human; conditions: 72 hours treatment, CellTiter-Glo 2.0
Method in brief: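 GI50 values come from four-parameter curve fits of luminescence data normalized to a zero baseline. Compound, in medium with 0.5% DMSO, was added one day after plating and left for 72 h before CellTiter-Glo 2.0 addition.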

[1] = test system: T-Rex 293 cell line SC3 cells having increased expression of androgen receptor protein due to exposure to doxycycline; experiment: Cellular growth inhibition, T-Rex 293 SC3 cells with doxycycline (androgen receptor induced), CellTiter-Glo; assay type: cell-based; conditions: T-Rex 293 SC3 cells with 10 ng/mL doxycycline (increased androgen receptor expression)
Method in brief: (§1)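 Luminescence read-out (CellTiter-Glo 2.0) after 72 h compound exposure; GI50 by four-parameter nonlinear regression, baseline set at zero luminescence. SC3 cells, a doxycycline-inducible wild-type AR clone of T-Rex 293, were cultured ±10 ng/mL doxycycline in charcoal-dextran FBS medium.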

[2] = test system: T-Rex 293 cell line SC3 cells lacking increased expression of androgen receptor protein; experiment: Cellular growth inhibition, T-Rex 293 SC3 cells without doxycycline, CellTiter-Glo; assay type: cell-based; conditions: T-Rex 293 SC3 cells not exposed to doxycycline, CellTiter-Glo 2.0
Method in brief: as §1

T47D cells = experiment: Cellular growth inhibition assay for T47D cells, CellTiter-Glo; assay type: cell-based, human; conditions: 72 hours treatment, CellTiter-Glo 2.0 cell viability
Method in brief: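 Cells are plated at 3000/well and allowed 24 h before treatment. Test compound in medium containing 0.5% DMSO is then added, with DMSO-only wells as negative control, and plates are incubated 72 h at 37 °C. ATP luminescence (CellTiter-Glo 2.0) is then fitted to four parameters to derive GI50.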

Row | GI50 (VCaP cells) [nM] | GI50 (T47D cells) [nM] | GI50 (VCaP cells; Homo sapiens, VCaP, 72 h) [nM] | GI50 (T47D cells; Homo sapiens, T47D, 72 h) [nM] | SMILES | GI50 ([1]; 72 hours) [nM] | GI50 ([2]; 72 hours) [nM] | GI50 ([1]; 72 h) [nM] | GI50 ([2]; 72 h) [nM]
1 | < 500 | < 500 |  |  | Cc1sc2c(c1C)C(c1ccc(N3CCC4(CC3)CC(Cc3ncc(C(=O)N[C@H]5C(C)(C)[C@H](Oc6ccc(C#N)c(Cl)c6)C5(C)C)cn3)C4)cc1)=NC(Cc1ncco1)c1nnc(C)n1-2 (stereo partly drawn) [Compound I-460] | < 500 | 500 to 1500 |  | 
2 |  |  | < 500 | > 3000 | Cc1sc2c(c1C)C(c1ccc(O[C@H]3CC[C@]4(CCCN(c5ncc(C(=O)N[C@H]6C(C)(C)[C@H](Oc7ccc(C#N)c(Cl)c7)C6(C)C)cn5)C4)CC3)cc1)=N[C@@H](Cc1ncco1)c1nnc(C)n1-2 [Compound I-171] |  |  | < 500 | < 500
3 |  |  | < 500 | < 500 | Cc1sc2c(c1C)C(c1ccc(OCC[C@H]3CCCN(c4ncc(C(=O)N[C@H]5C(C)(C)[C@H](Oc6ccc(C#N)c(Cl)c6)C5(C)C)cn4)C3)cc1)=N[C@@H](Cc1ncco1)c1nnc(C)n1-2 [Compound I-301] |  |  | < 500 | 500 to 1500
4 |  |  | < 500 | < 500 | Cc1sc2c(c1C)C(c1ccc(CN3CCC4(CCCN(c5ncc(C(=O)N[C@H]6C(C)(C)[C@H](Oc7ccc(C#N)c(Cl)c7)C6(C)C)cn5)C4)C3)cc1)=N[C@H](Cc1ncco1)c1nnc(C)n1-2 (stereo partly drawn) [Compound I-146] |  |  | < 500 | 500 to 1500
5 |  |  | < 500 | < 500 | Cc1sc2c(c1C)C(c1ccc([C@H]3CCN(C(=O)[C@@H]4CCCN(c5ncc(C(=O)N[C@H]6C(C)(C)[C@H](Oc7ccc(C#N)c(Cl)c7)C6(C)C)cn5)C4)C3)cc1)=N[C@@H](Cc1ncco1)c1nnc(C)n1-2 [Compound I-384] |  |  | < 500 | < 500
6 |  |  | < 500 | 500 to 1500 | CCNC(=O)C[C@@H]1N=C(c2ccc(OCCN3CCN(c4ncc(C(=O)N[C@H]5C(C)(C)[C@H](Oc6ccc(C#N)c(Cl)c6)C5(C)C)cn4)CC3)cc2)c2c(sc(C)c2C)-n2c(C)nnc21 [Compound I-70] |  |  | < 500 | 500 to 1500
7 |  |  | < 500 | < 500 | Cc1sc2c(c1C)C(c1ccc([C@H]3CCN(C(=O)[C@H]4CCCN(c5ncc(C(=O)N[C@H]6C(C)(C)[C@H](Oc7ccc(C#N)c(Cl)c7)C6(C)C)cn5)C4)C3)cc1)=N[C@@H](Cc1ncco1)c1nnc(C)n1-2 [Compound I-387] |  |  | < 500 | 500 to 1500
8 |  |  | < 500 | < 500 | Cc1sc2c(c1C)C(c1ccc(N3CCN(C4CCN(c5ncc(C(=O)N[C@H]6C(C)(C)[C@H](Oc7ccc(C#N)c(Cl)c7)C6(C)C)cn5)CC4)CC3)cc1)=NC(Cc1ncco1)c1nnc(C)n1-2 (stereo partly drawn) [Compound I-651] |  |  | < 500 | < 500
9 |  |  | < 500 | < 500 | Cc1sc2c(c1C)C(c1ccc(OC3CC4(C3)CC3(CCN(c5ccc(C(=O)N[C@H]6C(C)(C)[C@H](Oc7ccc(C#N)c(Cl)c7)C6(C)C)cn5)CC3)C4)cc1)=N[C@@H](C)c1nnc(C)n1-2 [Compound I-550] |  |  | < 500 | > 3000
10 |  |  | < 500 | 500 to 1500 | Cc1sc2c(c1C)C(c1ccc(CN(C)C(=O)[C@@H]3CC[C@@H](c4ncc(C(=O)N[C@H]5C(C)(C)[C@H](Oc6ccc(C#N)c(Cl)c6)C5(C)C)cn4)C3)cc1)=N[C@@H](Cc1ncco1)c1nnc(C)n1-2 [Compound I-372] |  |  | < 500 | > 3000
11 |  |  | < 500 | < 500 | Cc1sc2c(c1C)C(c1ccc(NCC3CCN(c4ncc(C(=O)N[C@H]5C(C)(C)[C@H](Oc6ccc(C#N)c(Cl)c6)C5(C)C)cn4)C3)cc1)=NC(Cc1ncco1)c1nnc(C)n1-2 (stereo partly drawn) [Compound I-639] |  |  | < 500 | < 500
12 |  |  | < 500 | < 500 | Cc1sc2c(c1C)C(c1ccc(OC3CC4(CCN(c5ccc(C(=O)N[C@H]6C(C)(C)[C@H](Oc7ccc(C#N)c(Cl)c7)C6(C)C)cn5)CC4)C3)cc1)=N[C@@H](Cc1ncco1)c1nnc(C)n1-2 [Compound I-170] |  |  | < 500 | > 3000
